Measured values from publication PMC11025159 (Journal of Translational Medicine, 2024).
Values joined by “and” are separate entries in the source; they are usually repeats but may differ in a detail not shown here. Identical values can stand only once.

Columns and labels:
[1] = Body weight, biochemical and haematological parameters in DHT-induced AGA mice (0.5% testosterone then topical treatment); format: in vivo, C57BL/6J mice; details: for Weight of C57BL/6J mice: individual mice; for LYMPH: unit assumed
Procedure: The experiments were performed on C57BL/6 J and Athymic nude mice (NU/J Foxn1^nu) of 6–7 weeks of age obtained from Animal House Facility, CSIR-Indian Institute of Integrative Medicine (IIIM), Jammu, India. […] The animals were provided with ad libitum feed (standard pellet diet) and autoclaved RO water throughout the study. The body weight of mice was measured after seven days before treatment.
(§1) C57BL/6 J mice (male) were obtained from CSIR-IIIM Animal House at 7 weeks of age. We used a DHT-induced AGA mice model for this study. […] At the end of the experiment, skin samples were collected and preserved in 10% neutral buffered formalin for tissue sectioning and staining using haematoxylin and eosin (H&E). The histopathological examinations were performed under the 10× and 40× objectives of light microscope (Magnus, Mx21i).
Every two weeks during the experimental period, mice were anesthetized, and the blood samples were collected into tubes containing heparin sodium to detect the total and differential white blood cells, haemoglobin, red blood cell, platelet count, mean corpuscular haemoglobin, mean corpuscular volume, red blood cell volume, mean platelet volume, and analyzed using an automated haematology analyzer (Model: XT1800i; Make: Sysmex).
Every two weeks during the experimental period, mice and rats were anesthetized, and blood samples were collected into non-heparinized tubes and then centrifuged at 1000 rpm at 4 °C for 10 min to obtain the serum. The biochemical parameters, including total protein, aspartate aminotransferase, alanine aminotransferase, total protein, albumin, total bilirubin, direct bilirubin, glucose, total cholesterol, triglyceride, low-density lipoprotein, high-density lipoprotein, creatinine, and uric acid, were measured using an automatic biochemical analyzer (Model: EM360; Make: Erba Mannheim).

[2] = system: DHT-induced AGA mice; assay: Hair regrowth in DHT-induced AGA mice model (topical, 28 days); format: in vivo, C57BL/6J mice; details: for H&E skin histopathology finding: Days 7, 14, 21, 28
Procedure: as §1
Dorsal skin samples from C57BL/6J mice were shaved and collected for histological and molecular analyses on Days 7, 14, 21, and 28. The full-thickness skin tissue was fixed in a 10% neutral buffered formalin solution (Sigma) overnight and subsequently dehydrated for embedding in paraffin. Haematoxylin and eosin (H&E) staining was performed on the skin tissue, and digital photomicrographs were taken from the representative areas using light microscope (Magnus, Mx21i).
The quantification of anagen initiation was assessed by observing changes in the dorsal skin colour of C57BL/6 mice, a phenomenon closely linked to the onset of the anagen phase. Anagen quantification was done by employing threshold analysis on dorsal skin colouration using ImageJ. The darkening of the skin, attributed to melanogenesis, strongly correlates with the progression of anagen. This analysis is visually depicted as a heatmap using GraphPad Prism 9.5 Software.

Fc1ccc(-c2cnc3[nH]cc(-c4ccnc(NC5CC5)n4)c3c2)cc1 [MJ04]
Weight of C57BL/6J mice ([1]; 0.016 mg/Kg, DAY 1, in g (unit assumed)): 27.2 and 23.8 and 24.6 and 24.7 and 25.6 and 25.7 and 25.8
Weight of C57BL/6J mice ([1]; 0.016 mg/Kg, DAY 7): 28.1 and 25.1 and 26.1 (2×) and 26.9 and 27.1 and 27.3
Weight of C57BL/6J mice ([1]; 0.016 mg/Kg, DAY 14, in g (unit assumed)): 29.3 and 26.4 and 27.3 and 27.4 and 28.1 and 28.4 and 28.7
Weight of C57BL/6J mice ([1]; 0.016 mg/Kg, DAY 21, in g (unit assumed)): 27.6 and 28.7 and 28.9 and 29.7 and 30.1 and 30.4
Weight of C57BL/6J mice ([1]; 0.016 mg/Kg, DAY 28): 30.3 and 30.4 (2×) and 31.6 and 31.7
Weight of C57BL/6J mice ([1]; 0.04 mg/Kg, DAY 1): 24.2 and 24.6 and 25.6 (2×) and 25.7 and 25.8 and 26.3 and 27.4
Weight of C57BL/6J mice ([1]; 0.04 mg/Kg, DAY 7, in g (unit assumed)): 26.1 and 26.3 and 26.4 and 26.7 and 26.9 and 27.1 and 27.2 and 28.7
Weight of C57BL/6J mice ([1]; 0.04 mg/Kg, DAY 14): 28.1 and 28.3 (2×) and 28.5 and 28.6 and 28.7 and 29.6
Weight of C57BL/6J mice ([1]; 0.04 mg/Kg, DAY 21): 29.4 and 29.7 and 29.8 and 30.1 and 30.4 (2×)
Weight of C57BL/6J mice ([1]; 0.04 mg/Kg, DAY 28): 30.3 and 31.2 (2×) and 31.3 and 31.5
Weight of C57BL/6J mice ([1]; 0.08 mg/Kg, DAY 1): 24.8 and 25.4 (2×) and 26.4 (2×) and 24.2 and 25.6 and 25.9
Weight of C57BL/6J mice ([1]; 0.08 mg/Kg, DAY 7): 26.7 (3×) and 25.5 and 27.3 and 27.5 and 28.37 and 25.7
Weight of C57BL/6J mice ([1]; 0.08 mg/Kg, DAY 14): 27.6 and 28.1 (2×) and 28.4 and 27.1 and 29.3 and 27.4
Weight of C57BL/6J mice ([1]; 0.08 mg/Kg, DAY 21): 29.4 (2×) and 29.7 and 30.1 and 30.7 and 28.6
Weight of C57BL/6J mice ([1]; 0.08 mg/Kg, DAY 28): 30.3 and 31.2 and 31.3 (2×) and 30.2
ALP ([1]; Day 21, 0.016 mg/Kg): 99 U/L
ALT/SGPT ([1]; Day 21, 0.016 mg/Kg): 86 U/L
AST/SGOT ([1]; Day 21, 0.016 mg/Kg): 143 U/L
Cholesterol ([1]; Day 21, 0.016 mg/Kg): 154 mg/dL
Creatine ([1]; Day 21, 0.016 mg/Kg): 0.72 mg/dL
HCT ([1]; Day 21, 0.016 mg/Kg): 48%
HDL ([1]; Day 21, 0.016 mg/Kg): 112 mg/dL
HGB ([1]; Day 21, 0.016 mg/Kg): 14 g/dL
LDL ([1]; Day 21, 0.016 mg/Kg): 103 mg/dL
MCHC ([1]; Day 21, 0.016 mg/Kg): 29 g/dL
MCV ([1]; Day 21, 0.016 mg/Kg): 50 fL
NEUT ([1]; Day 21, 0.016 mg/Kg): 25.7%
PLT ([1]; Day 21, 0.016 mg/Kg): 1105 103/μl
RBC ([1]; Day 21, 0.016 mg/Kg): 9.7 1012/l
Total protein ([1]; Day 21, 0.016 mg/Kg): 5.2 g/dL
Triglyceride ([1]; Day 21, 0.016 mg/Kg): 114 mg/dL
Urea ([1]; Day 21, 0.016 mg/Kg): 55 mg/dL
WBC ([1]; Day 21, 0.016 mg/Kg): 6.5 103/μl
LYMPH ([1]; Day 21, 0.016 mg/Kg): 73.3%
ALP ([1]; Day 21, 0.04 mg/Kg): 121 U/L
ALT/SGPT ([1]; Day 21, 0.04 mg/Kg): 74 U/L
AST/SGOT ([1]; Day 21, 0.04 mg/Kg): 148 U/L
Cholesterol ([1]; Day 21, 0.04 mg/Kg): 138 mg/dL
Creatine ([1]; Day 21, 0.04 mg/Kg): 0.69 mg/dL
HCT ([1]; Day 21, 0.04 mg/Kg): 46%
HDL ([1]; Day 21, 0.04 mg/Kg): 111 mg/dL
HGB ([1]; Day 21, 0.04 mg/Kg): 13 g/dL
LDL ([1]; Day 21, 0.04 mg/Kg): 101 mg/dL
MCHC ([1]; Day 21, 0.04 mg/Kg): 29 g/dL
MCV ([1]; Day 21, 0.04 mg/Kg): 50 fL
NEUT ([1]; Day 21, 0.04 mg/Kg): 39.4%
PLT ([1]; Day 21, 0.04 mg/Kg): 899 103/μl
RBC ([1]; Day 21, 0.04 mg/Kg): 9.0 1012/l
Total protein ([1]; Day 21, 0.04 mg/Kg): 4.9 g/dL
Triglyceride ([1]; Day 21, 0.04 mg/Kg): 127 mg/dL
Urea ([1]; Day 21, 0.04 mg/Kg): 49 mg/dL
WBC ([1]; Day 21, 0.04 mg/Kg): 3.0 103/μl
LYMPH ([1]; Day 21, 0.04 mg/Kg): 60.3%
ALP ([1]; Day 21, 0.08 mg/Kg): 111 U/L
ALT/SGPT ([1]; Day 21, 0.08 mg/Kg): 58 U/L
AST/SGOT ([1]; Day 21, 0.08 mg/Kg): 114 U/L
Cholesterol ([1]; Day 21, 0.08 mg/Kg): 184 mg/dL
Creatine ([1]; Day 21, 0.08 mg/Kg): 0.49 mg/dL
HCT ([1]; Day 21, 0.08 mg/Kg): 36%
HDL ([1]; Day 21, 0.08 mg/Kg): 105 mg/dL
HGB ([1]; Day 21, 0.08 mg/Kg): 10 g/dL
LDL ([1]; Day 21, 0.08 mg/Kg): 102 mg/dL
MCHC ([1]; Day 21, 0.08 mg/Kg): 28 g/dL
MCV ([1]; Day 21, 0.08 mg/Kg): 50 fL
NEUT ([1]; Day 21, 0.08 mg/Kg): 32.4%
PLT ([1]; Day 21, 0.08 mg/Kg): 424 103/μl
RBC ([1]; Day 21, 0.08 mg/Kg): 6.9 1012/l
Total protein ([1]; Day 21, 0.08 mg/Kg): 5.2 g/dL
Triglyceride ([1]; Day 21, 0.08 mg/Kg): 108 mg/dL
Urea ([1]; Day 21, 0.08 mg/Kg): 71 mg/dL
WBC ([1]; Day 21, 0.08 mg/Kg): 3.3 103/μl
LYMPH ([1]; Day 21, 0.08 mg/Kg): 63%
ALP ([1]; Day 28, 0.016 mg/Kg): 193 U/L
ALT/SGPT ([1]; Day 28, 0.016 mg/Kg): 85 U/L
AST/SGOT ([1]; Day 28, 0.016 mg/Kg): 75 U/L
Cholesterol ([1]; Day 28, 0.016 mg/Kg): 194 mg/dL
Creatine ([1]; Day 28, 0.016 mg/Kg): 0.20 mg/dL
HCT ([1]; Day 28, 0.016 mg/Kg): 46.0%
HDL ([1]; Day 28, 0.016 mg/Kg): 94 mg/dL
HGB ([1]; Day 28, 0.016 mg/Kg): 14 g/dL
LDL ([1]; Day 28, 0.016 mg/Kg): 109 mg/dL
MCHC ([1]; Day 28, 0.016 mg/Kg): 30.0 g/dL
MCV ([1]; Day 28, 0.016 mg/Kg): 63 fL
PLT ([1]; Day 28, 0.016 mg/Kg): 1727 103/μl
RBC ([1]; Day 28, 0.016 mg/Kg): 7.4 106/μl
Total protein ([1]; Day 28, 0.016 mg/Kg): 6.3 g/dL
Triglyceride ([1]; Day 28, 0.016 mg/Kg): 132 mg/dL
Urea ([1]; Day 28, 0.016 mg/Kg): 54 mg/dL
WBC ([1]; Day 28, 0.016 mg/Kg): 7.8 103/μl
ALP ([1]; Day 28, 0.04 mg/Kg): 243 U/L
ALT/SGPT ([1]; Day 28, 0.04 mg/Kg): 69 U/L
AST/SGOT ([1]; Day 28, 0.04 mg/Kg): 107 U/L
Cholesterol ([1]; Day 28, 0.04 mg/Kg): 165 mg/dL
Creatine ([1]; Day 28, 0.04 mg/Kg): 0.14 mg/dL
HCT ([1]; Day 28, 0.04 mg/Kg): 46.0%
HDL ([1]; Day 28, 0.04 mg/Kg): 108 mg/dL
HGB ([1]; Day 28, 0.04 mg/Kg): 14 g/dL
LDL ([1]; Day 28, 0.04 mg/Kg): 91 mg/dL
MCHC ([1]; Day 28, 0.04 mg/Kg): 30.0 g/dL
MCV ([1]; Day 28, 0.04 mg/Kg): 62.0 fL
PLT ([1]; Day 28, 0.04 mg/Kg): 1687 103/μl
RBC ([1]; Day 28, 0.04 mg/Kg): 7.5 106/μl
Total protein ([1]; Day 28, 0.04 mg/Kg): 5.8 g/dL
Triglyceride ([1]; Day 28, 0.04 mg/Kg): 122 mg/dL
Urea ([1]; Day 28, 0.04 mg/Kg): 52 mg/dL
WBC ([1]; Day 28, 0.04 mg/Kg): 7.5 103/μl
ALP ([1]; Day 28, 0.08 mg/Kg): 189 U/L
ALT/SGPT ([1]; Day 28, 0.08 mg/Kg): 63 U/L
AST/SGOT ([1]; Day 28, 0.08 mg/Kg): 113 U/L
Cholesterol ([1]; Day 28, 0.08 mg/Kg): 194 mg/dL
Creatine ([1]; Day 28, 0.08 mg/Kg): 0.13 mg/dL
HCT ([1]; Day 28, 0.08 mg/Kg): 52.0%
HDL ([1]; Day 28, 0.08 mg/Kg): 106 mg/dL
HGB ([1]; Day 28, 0.08 mg/Kg): 15 g/dL
LDL ([1]; Day 28, 0.08 mg/Kg): 78 mg/dL
MCHC ([1]; Day 28, 0.08 mg/Kg): 29.0 g/dL
MCV ([1]; Day 28, 0.08 mg/Kg): 61.0 fL
PLT ([1]; Day 28, 0.08 mg/Kg): 1362 103/μl
RBC ([1]; Day 28, 0.08 mg/Kg): 8.6 106/μl
Total protein ([1]; Day 28, 0.08 mg/Kg): 6.2 g/dL
Triglyceride ([1]; Day 28, 0.08 mg/Kg): 174 mg/dL
Urea ([1]; Day 28, 0.08 mg/Kg): 79 mg/dL
WBC ([1]; Day 28, 0.08 mg/Kg): 7.1 103/μl
hair growth compared to controls and tofacitinib-treated mice ([2]; 0.04 mg/Kg topical): significantly higher and homogeneous hair growth
H&E skin histopathology finding ([2]; 0.04mg/kg): Minimal degree of epidermal atrophy
H&E skin histopathology finding ([2]; 0.08mg/kg): Normal epidermis with increased hair follicles
hair follicle phase (histopathology) ([2]; skin samples days 7, 14, 21, 28): at least in the anagen IIIc-IV phase
entry into the anagen phase ([2]; topical once a day in presence of testosterone): rapid entry into the anagen phase within seven days of treatment
mice displaying intense skin darkening followed by hair growth ([2]; within 10 days of treatment): around 90%
